Source: the NIST ThermoML archive (doi:10.1016/j.jct.2014.01.012)

Legend:
[1] = refractive index (Na D-line) (dimensionless); xn = mol fraction of the nth substance listed; details: 101 kPa, Liquid, x2 = 0
[2] = xn = mol fraction of the nth substance listed; details: 101 kPa, Liquid, x2 = 0
[3] = 101.33 kPa, Liquid
[4] = refractive index (Na D-line) (dimensionless); details: 101.33 kPa, Liquid

CCCCOC(C)=O [butyl ethanoate] + CCCCCCn1cc[n+](C)c1.F[P-](F)(F)(F)(F)F
Details	mass density, Vibrating tube method [kg/m3]	refractive index, Standard Abbe refractometry	speed of sound, Sing-around technique in a fixed-path interferometer [m/s]
[1], 293.15 K	–	1.39428	–
[1], 298.15 K	–	1.39188	–
[1], 303.15 K	–	1.38948	–
[1], 308.15 K	–	1.3871	–
[1], 313.15 K	–	1.38469	–
[1], 318.15 K	–	1.38227	–
[1], 323.15 K	–	1.37984	–
[2], 293.15 K	881.134	–	1211.3
[2], 298.15 K	876.004	–	1190.5
[2], 303.15 K	870.855	–	1169.8
[2], 308.15 K	865.685	–	1149.2
[2], 313.15 K	860.492	–	1128.8
[2], 318.15 K	855.275	–	1108.5
[2], 323.15 K	850.032	–	1088.3

CCOC(C)=O [ethyl acetate]
Details	mass density, Vibrating tube method [kg/m3]	refractive index, Standard Abbe refractometry	speed of sound, Sing-around technique in a fixed-path interferometer [m/s]
[3], 293.15 K	900.573	–	1162.4
[3], 298.15 K	894.473	–	1139.8
[3], 303.15 K	888.347	–	1117.2
[3], 308.15 K	882.172	–	1094.7
[3], 313.15 K	875.951	–	1072.4
[3], 318.15 K	869.681	–	1050.1
[3], 323.15 K	863.358	–	1028
[4], 293.15 K	–	1.37237	–
[4], 298.15 K	–	1.36982	–
[4], 303.15 K	–	1.36727	–
[4], 308.15 K	–	1.36473	–
[4], 313.15 K	–	1.36219	–
[4], 318.15 K	–	1.35968	–
[4], 323.15 K	–	1.35732	–

CCOC(C)=O [ethyl acetate] + CCCCCCCC[n+]1ccn(C)c1.F[P-](F)(F)(F)(F)F
Details	mass density, [2] [kg/m3]	refractive index, [1]	speed of sound, [2] [m/s]
293.15 K	900.573	1.37237	1162.4
298.15 K	894.473	1.36982	1139.8
303.15 K	888.347	1.36727	1117.2
308.15 K	882.172	1.36473	1094.7
313.15 K	875.951	1.36219	1072.4
318.15 K	869.681	1.35968	1050.1
323.15 K	863.358	1.35732	1028

CCOC(C)=O [ethyl acetate] + CCCCCCn1cc[n+](C)c1.F[P-](F)(F)(F)(F)F
[1]
Details	refractive index
293.15 K	1.37237
298.15 K	1.36982
303.15 K	1.36727
308.15 K	1.36473
313.15 K	1.36219
318.15 K	1.35968
323.15 K	1.35732

[2]
Details	mass density, Vibrating tube method [kg/m3]	speed of sound, Sing-around technique in a fixed-path interferometer [m/s]
293.15 K	900.573	1162.4
298.15 K	894.473	1139.8
303.15 K	888.347	1117.2
308.15 K	882.172	1094.7
313.15 K	875.951	1072.4
318.15 K	869.681	1050.1
323.15 K	863.358	1028

CCCCCCCC[n+]1ccn(C)c1.F[P-](F)(F)(F)(F)F [1-octyl-3-methylimidazolium hexafluorophosphate]
Details	mass density, [3] [kg/m3]	refractive index, [4]	speed of sound, [3] [m/s]
293.15 K	1222.81	1.42649	1388.2
298.15 K	1218.9	1.42512	1373.4
303.15 K	1214.96	1.42376	1359.3
308.15 K	1211.13	1.4224	1345.8
313.15 K	1207.33	1.42103	1332.7
318.15 K	1203.5	1.41967	1320.1
323.15 K	1199.67	1.41831	1307.7

CCCCCCn1cc[n+](C)c1.F[P-](F)(F)(F)(F)F [1-hexyl-3-methylimidazolium hexafluorophosphate]
Details	mass density, Vibrating tube method [kg/m3]	refractive index, Standard Abbe refractometry	speed of sound, Sing-around technique in a fixed-path interferometer [m/s]
[3], 293.15 K	1291.38	–	1436.9
[3], 298.15 K	1287.34	–	1423.5
[3], 303.15 K	1283.29	–	1410.6
[3], 308.15 K	1279.4	–	1398.2
[3], 313.15 K	1275.48	–	1386
[3], 318.15 K	1271.56	–	1374.2
[3], 323.15 K	1267.63	–	1362.5
[4], 293.15 K	–	1.42064	–
[4], 298.15 K	–	1.41935	–
[4], 303.15 K	–	1.41806	–
[4], 308.15 K	–	1.41676	–
[4], 313.15 K	–	1.41547	–
[4], 318.15 K	–	1.41417	–
[4], 323.15 K	–	1.41288	–

CCCCOC(C)=O [butyl ethanoate] + CCCCCCCC[n+]1ccn(C)c1.F[P-](F)(F)(F)(F)F
Details	mass density, [2] [kg/m3]	refractive index, [1]	speed of sound, [2] [m/s]
293.15 K	881.134	1.39428	1211.3
298.15 K	876.004	1.39188	1190.5
303.15 K	870.855	1.38948	1169.8
308.15 K	865.685	1.3871	1149.2
313.15 K	860.492	1.38469	1128.8
318.15 K	855.275	1.38227	1108.5
323.15 K	850.032	1.37984	1088.3

CCCCOC(C)=O [butyl ethanoate]
Details	mass density, Vibrating tube method [kg/m3]	refractive index, Standard Abbe refractometry	speed of sound, Sing-around technique in a fixed-path interferometer [m/s]
[3], 293.15 K	881.134	–	1211.3
[3], 298.15 K	876.004	–	1190.5
[3], 303.15 K	870.855	–	1169.8
[3], 308.15 K	865.685	–	1149.2
[3], 313.15 K	860.492	–	1128.8
[3], 318.15 K	855.275	–	1108.5
[3], 323.15 K	850.032	–	1088.3
[4], 293.15 K	–	1.39428	–
[4], 298.15 K	–	1.39188	–
[4], 303.15 K	–	1.38948	–
[4], 308.15 K	–	1.3871	–
[4], 313.15 K	–	1.38469	–
[4], 318.15 K	–	1.38227	–
[4], 323.15 K	–	1.37984	–
